Experimental data from patent US5741917A, “Process for the preparation of acyloxyalkanesulfonates having improved properties” (Hoechst Aktiengesellschaft, priority 1995, dated 1998).

Settings: deionized water

Water solubility (maximum concentration giving a clear solution): 10%
Substance: sodium C13 to C15 -acylisethionate [Example 4]
